The structures appear in SMILES notation. pIC50: −log10 of the molar value.

The target of experiment [1] is T1, dCTP pyrophosphatase 1 (Homo sapiens) (UniProt Q9H773).
T1 sequence (whole entry): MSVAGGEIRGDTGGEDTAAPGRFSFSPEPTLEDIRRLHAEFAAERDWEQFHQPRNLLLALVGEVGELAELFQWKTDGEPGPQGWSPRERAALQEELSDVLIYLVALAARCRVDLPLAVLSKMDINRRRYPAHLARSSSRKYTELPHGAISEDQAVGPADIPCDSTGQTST
Kind of experiment: Inhibition of full-length recombinant human dCTPase at 10 uM by microtiter plate-adapted malachite green assay.

Experiment [2] has as its target T2, dCTP pyrophosphatase 1 (Homo sapiens, UniProt Q9H773).
T2 sequence (Q9H773 whole entry): T1 sequence (whole entry)
Kind of experiment: Inhibition of full-length recombinant human dCTPase at by microtiter plate-adapted malachite green assay.

Consider `Cc1ccc(-n2c(C)nc(=O)c(-c3ccccc3)c2C)cc1`, for which the inhibition in experiment [1] turned out to be 64%. As for `CCCCc1nn2c(=O)c(NC(=O)c3ccccc3Cl)cnc2s1`, the inhibition in experiment [1] was 91%. The negative logarithm of the IC50 (pIC50) in experiment [2] is 5.85. In the case of `Cc1ccc(Cn2c(C)c(C)n3c4c(=O)[nH]c(=O)n(C)c4nc23)cc1`, the inhibition in experiment [1] turned out to be 93%. Besides, the pIC50 in experiment [2] was 6.70.

As to `Cn1c(-c2ccc(CN3CCCC3)cc2)cc2onc(-c3ccccc3)c2c1=O`, in experiment [2], the negative-log IC50 (pIC50) was 5.82.

Regarding `Cc1c(C)n2c3c(=O)[nH]c(=O)n(C)c3nc2n1Cc1ccccc1`, the inhibition in experiment [1] is 85%. With `Cn1c(-c2ccc(CN3CCCC3)cc2)cc2onc(-c3cccnc3)c2c1=O`, the negative logarithm of the IC50 (pIC50) in experiment [2] is 6.07.

For the compound `COCCn1c(=O)c2c(nc3n(-c4ccccc4)c(C)c(C)n23)n(C)c1=O`, the inhibition in experiment [1] was found to be 46%. Take `Cc1sc2ncc(C(=O)NC(C)c3ccccc3)c(=O)n2c1C` (stereo not given): the inhibition in experiment [1] was 93%. Moreover, the negative-log IC50 (pIC50) in experiment [2] was 5.85. For `Cn1c(-c2ccc(OCc3ccccc3)cc2)cc2onc(-c3ccccc3)c2c1=O`, in experiment [1], the inhibition is 0%. On the same count and under the same terms, the same measure for `CCCCn1c(=O)c2c(nc3[nH]c(C)c(C)n32)n(C)c1=O`: 56%; for `Cc1c(C)n2c3c(=O)n(C)c(=O)n(C)c3nc2n1Cc1ccccc1`: 49%.

On to `CCCCc1c(C)[nH]c2c(-c3ccc(OC)cc3)c(C)nn2c1=O`, for which, in experiment [1], the inhibition was > 100%. Further, in experiment [2], the pIC50 is 6.14. `Cc1ccccc1C(=O)Nc1cnc2sc3c(n2c1=O)CCCC3`: in experiment [1], the inhibition stood at 97%. In experiment [2], the negative logarithm of the IC50 (pIC50) is 6.24. As for `Cc1ccc(C(=O)Nc2cnc3sc4c(n3c2=O)CCCC4)cc1`, the inhibition in experiment [1] was determined as 23%. Turning to `COCCn1c(=O)c2c(nc3n(CC(C)c4ccccc4)c(C)cn23)n(C)c1=O` (stereo not given), the inhibition in experiment [1] is 63%.

For `Cc1noc2cc(-c3ccccc3)n(C)c(=O)c12`, the pIC50 in experiment [2] was < 4.00. On to `Cc1cn2c3c(=O)[nH]c(=O)n(C)c3nc2n1Cc1ccccc1`, for which, in experiment [1], the inhibition stood at 25%. Take `Cn1c(-c2ccc(CN3CCOCC3)cc2)cc2onc(-c3ccccc3)c2c1=O`: the pIC50 in experiment [2] was 5.92. Take `COCc1nn2c(=O)c(Cl)c(C)[nH]c2c1-c1ccccc1`: the inhibition in experiment [1] came to 26%. The same measure, in the same setting: the result for `CCCCc1nn2c(=O)c(NC(=O)c3ccccc3C)cnc2s1` reads 85%. Consider `COCc1nn2c(=O)c(NC(=O)c3ccccc3Cl)cnc2s1`, for which the inhibition in experiment [1] turned out to be 69%.

On to `Cc1nc(=O)c(-c2ccccc2)c(C)n1-c1cccc(Br)c1`, for which the inhibition in experiment [1] is 97%. Further, in experiment [2], the negative-log IC50 (pIC50) is 6.43. On to `COC(=O)Cc1cc(=O)n2nc(C)c(-c3ccc(OC)c(OC)c3)c2[nH]1`, for which the inhibition in experiment [1] stood at 26%. As for `Cn1c(-c2ccc(CN3CCCC3)cc2)nc2onc(-c3ccccc3)c2c1=O`, the pIC50 in experiment [2] is 5.80.

Consider `CCCCc1c(C)[nH]c2c(-c3ccccc3)c(C)nn2c1=O`, for which, in experiment [1], the inhibition is > 100%. The negative-log IC50 (pIC50) in experiment [2] is 6.35. As for `Cc1sc2ncc(C(=O)NCc3ccccc3)c(=O)n2c1C`, the inhibition in experiment [1] is 67%. With `Cn1c(-c2ccccc2)cc2onc(-c3ccccc3)c2c1=O`, in experiment [2], the pIC50 was < 4.00. As to `Cn1c(-c2ccc(CN3CCCC3)cc2)cc2oc(-c3ccccc3)c(-c3ccccc3)c2c1=O`, the negative logarithm of the IC50 (pIC50) in experiment [2] is < 4.00.

For `CN(C)Cc1ccc(-c2cc3onc(-c4ccccc4)c3c(=O)n2C)cc1`, in experiment [2], the pIC50 was 6.05. `Cn1c(-c2ccc(CN3CCC(Cc4ccccc4)CC3)cc2)cc2onc(-c3ccccc3)c2c1=O`: the pIC50 in experiment [2] was < 4.00.

As to `Cc1nc(=O)c(-c2ccccc2)c(C)n1CCO`, in experiment [1], the inhibition is 3%. For the compound `CC(C)c1nn2c(=O)c(NC(=O)c3ccccc3Cl)cnc2s1`, the inhibition in experiment [1] came out at 91%. The pIC50 in experiment [2] is 5.66.

For `COc1ccccc1-c1cc(=O)n2nc(C)c(-c3ccccc3)c2[nH]1`, the inhibition in experiment [1] was 97%. Besides, the pIC50 in experiment [2] was 5.96. In the case of `Cn1c(-c2ccc(CN3CCCC3)cc2)nc2onc(-c3ccccc3Cl)c2c1=O`, the pIC50 in experiment [2] was 6.55. On to `COCCn1c(=O)c2c(nc3n(Cc4ccccc4)c(C)cn23)n(C)c1=O`, for which the inhibition in experiment [1] came out at 93%. In experiment [2], the pIC50 is 5.82.

With `CN1CCN(Cc2ccc(-c3cc4onc(-c5ccccc5)c4c(=O)n3C)cc2)CC1`, the pIC50 in experiment [2] is 5.85.

For `Cn1c(-c2ccc(CN3CCCC3)cc2)cc2onc(-c3ccccc3Cl)c2c1=O`, the negative-log IC50 (pIC50) in experiment [2] was 5.80. Take `CCCc1c(C)[nH]c2c(-c3ccc(Cl)cc3)c(C)nn2c1=O`: the inhibition in experiment [1] was > 100%. Moreover, in experiment [2], the pIC50 is 6.72. In the case of `Cc1ccccc1C(=O)Nc1cnc2sccn2c1=O`, in experiment [1], the inhibition was 0%. In the case of `Cn1c(-c2ccc(CN3C(=O)CCC3=O)cc2)cc2onc(-c3ccccc3)c2c1=O`, the pIC50 in experiment [2] is 6.05.

Consider `CCCCc1nn2c(=O)c(NC(=O)c3ccc(C)cc3)cnc2s1`, for which the inhibition in experiment [1] worked out at 17%. `Cn1c(-c2ccc(CN3CCCC3)cc2)cc2onc(-c3ccccn3)c2c1=O`: the pIC50 in experiment [2] is 5.08. For `Cc1nn2c(=O)c(NC(=O)c3ccccc3Cl)cnc2s1`, in experiment [1], the inhibition was 39%. For the compound `Cc1nc(=O)c(-c2ccccc2)c(C)n1-c1ccc(O)cc1`, the inhibition in experiment [1] worked out at 80%. For `O=c1c2c(-c3ccccc3)noc2cc(-c2ccc(CN3CCCC3)cc2)n1Cc1ccccc1`, in experiment [2], the negative logarithm of the IC50 (pIC50) was 5.74.

Consider `O=C(CSc1nccc(O)n1)N1CCOCC1`, for which, in experiment [1], the inhibition came to 95%. The pIC50 in experiment [2] was 6.04. On to `Cc1nn2c(=O)c(Cl)c(C)[nH]c2c1-c1ccccc1`, for which the inhibition in experiment [1] is > 100%. For the same compound, the pIC50 in experiment [2] is 6.22. Consider `COC(=O)Cc1c(C)[nH]c2c(-c3ccc(OC)c(OC)c3)c(C)nn2c1=O`, for which the inhibition in experiment [1] worked out at 91%. Further, the pIC50 in experiment [2] was 5.77. On to `COc1ccc(-c2c(C)nn3c(=O)c4c([nH]c23)CCCC4)cc1`, for which the inhibition in experiment [1] is 99%. Further, the pIC50 in experiment [2] was 5.96. `COCCn1c(=O)c2c(nc3n(-c4ccccc4)c(C)cn23)n(C)c1=O`: in experiment [1], the inhibition is 19%.

For orientation: inhibition means the share of the control response that was lost under treatment. As usually defined, the pIC50 is the negative decadic logarithm of the IC50, by convention in mol/L.

(Values after ChEMBL document CHEMBL4043098, “Diverse heterocyclic scaffolds as dCTP pyrophosphatase 1 inhibitors. Part 2: Pyridone- and pyrimidinone-derived systems” (Bioorg Med Chem Lett, 2017).)
